Values after ≈ are worked out from the molar mass of the structure shown. Like-named read-outs stand apart in the source and are kept apart here.
Assays:
[1] = test system: Proteus vulgaris XI9H ATCC 881; assay: MIC, two-fold dilution microtiter, P. vulgaris; type: cell-based; settings: P. vulgaris XI9H ATCC 881, Iso-Sensitest broth, 18-24 h, 37° C
[2] = test system: Streptococcus pyogenes C203; assay: MIC, two-fold dilution microtiter, S. pyogenes C203; type: cell-based; settings: Todd-Hewitt broth, 18-24 h, 37° C
Protocol: (§1) The minimum inhibitory concentration (MIC) of representative compounds of the invention was determined using two-fold dilution method in microtiter system. The media used were: Todd-Hewitt broth (Difco) for steptococci; Iso-Sensitest broth (Oxoid) for staphylococci and gram-negative bacteria. The final inoculum was about 10^4 cfμ/ml. […] For M. tuberculosis H37 RV the inoculum consisted of 0.5-1% of a 7-9 day culture in Dubos medium. The tests were carried out in Kirschner medium supplemented with 10% horse serum. Observations were made after 7-days incubation at 37° C.

S. aureus TOUR L 165 [3] = assay: MIC, two-fold dilution microtiter, S. aureus TOUR L 165; type: cell-based, Staphylococcus aureus
[4] = test system: Escherichia coli SKF 12140; assay: MIC, two-fold dilution microtiter, E. coli SKF 12140; type: cell-based; settings: 18-24 h, 37° C
S. faecalis ATCC 7080 = assay: MIC, two-fold dilution microtiter, S. faecalis ATCC 7080; type: cell-based; settings: 37° C
[5] = test system: Klebsiella pneumoniae ISM; assay: MIC, two-fold dilution microtiter, K. pneumoniae ISM; type: cell-based
[6] = test system: Staphylococcus aureus ATCC 6538; assay: MIC, two-fold dilution microtiter, S. aureus ATCC 6538; type: cell-based; settings: S. aureus ATCC 6538, Iso-Sensitest broth, 18-24 h, 37° C
[7] = test system: Pseudomonas aeruginosa ATCC 10145; assay: MIC, two-fold dilution microtiter, P. aeruginosa ATCC 10145; type: cell-based; settings: P. aeruginosa ATCC 10145, Iso-Sensitest broth, 18-24 h, 37° C
S. pneumoniae UC 41 = assay: MIC, two-fold dilution microtiter, S. pneumoniae UC 41; type: cell-based; settings: 18-24 h, 37° C
[8] = test system: Mycobacterium tuberculosis H37RV ATCC 9360; assay: MIC, M. tuberculosis H37RV, Kirschner medium; type: cell-based; settings: 10% horse serum, 7 days, 37° C
Protocol: as §1

S. aureus TOUR L 1282 = assay: MIC, two-fold dilution microtiter, rifampicin resistant S. aureus TOUR L 1282; type: cell-based; settings: Staphylococcus aureus, TOURL1282, rifampicin resistant strain
S. aureus tour L 165 [9] = assay: experimental septicemia in mice (S. aureus); type: in vivo; settings: Staphylococcus aureus, once daily for three days, survival on 10th day
Protocol: The antimicrobial activity of the compounds of the invention is also confirmed in "in vivo" tests. The animals (groups of five mice) were infected by intraperitoneal injection of 16-hour broth culture of S. aureus tour L 165. Inocula were adjusted so that untreated animals died of septicemia within 48 hours. Animals were treated once daily for three days starting immediately after infection. On the 10th day the value for the ED50 in mg/kg/day was calculated by the method of […]-KARBER (Finney, D. J., Statistical method in biological assay, page 524. C. Griffin Ltd., London, 1952), on the basis of the percentage of surviving animals at each dose.

[10] = Proteus vulgaris, ATCC881, read-out: MIC
[11] = Streptococcus pyogenes, read-out: MIC
[12] = Staphylococcus aureus, TOURL165, S. aureus TOUR L 165, Iso-Sensitest broth, 18-24 h, 37° C, read-out: MIC
[13] = Staphylococcus aureus, TOURL165, S. aureus TOUR L 165, supplemented with 30% bovine serum, read-out: MIC
[14] = Escherichia coli, SKF12140, Iso-Sensitest broth, read-out: MIC
[15] = Enterococcus faecalis, ATCC7080, 18-24 h, read-out: MIC
[16] = Klebsiella pneumoniae, K. pneumoniae ISM, Iso-Sensitest broth, 18-24 h, 37° C, read-out: MIC
[17] = Staphylococcus aureus, ATCC6538, read-out: MIC
[18] = Pseudomonas aeruginosa, ATCC10145, read-out: MIC
[19] = Streptococcus pneumoniae, UC41, Todd-Hewitt broth, read-out: MIC
[20] = Mycobacterium tuberculosis, 168 h, read-out: MIC

Compound	MIC [1, 10] [µg/mL]	MIC [2, 11] [µg/mL]	MIC (S. aureus TOUR L 165 [3]; [12]) [µg/mL]	MIC (S. aureus TOUR L 165 [3]; [13]) [µg/mL]	MIC [4, 14] [µg/mL]	MIC (S. faecalis ATCC 7080; [15]) [µg/mL]	MIC [5, 16] [µg/mL]	MIC [6, 17] [µg/mL]	MIC [7, 18] [µg/mL]	MIC (S. pneumoniae UC 41; [19]) [µg/mL]	MIC [8, 20] [µg/mL]	MIC (S. aureus TOUR L 1282) [µg/mL]	ED50 (S. aureus tour L 165 [9]; TOURL165, 240 h, sc) [mg/kg]	ED50 (S. aureus tour L 165 [9]; TOURL165, po, 240 h, os) [mg/kg]	further results
2'(4"-phenylmethoxycarbonyl-1"-piperazinyl) rifamycin P [Example 1f]															MIC [1]: 64 µg/mL; MIC [2]: 0.125 µg/mL; MIC (S. aureus TOUR L 165 [3]; S. aureus TOUR L 165, Iso-Sensitest broth, 18-24 h, 37° C): 0.064 µg/mL; MIC (S. aureus TOUR L 165 [3]; S. aureus TOUR L 165, supplemented with 30% bovine serum): 0.064 µg/mL; MIC ([4]; Iso-Sensitest broth): > 128 µg/mL; MIC (S. faecalis ATCC 7080; 18-24 h): 2 µg/mL; MIC ([5]; K. pneumoniae ISM, Iso-Sensitest broth, 18-24 h, 37° C): > 128 µg/mL; MIC [6]: 0.064 µg/mL; MIC [7]: 32 µg/mL; MIC (S. pneumoniae UC 41; Todd-Hewitt broth): 0.064 µg/mL; MIC [8]: 0.5 µg/mL
COC1C=COC2(C)Oc3c(C)c(O)c4c(O)c(c5sc(N6CCCC6)nc5c4c3C2=O)NC(=O)C(C)=CC=CC(C)C(O)C(C)C(O)C(C)C(OC(C)=O)C1C (stereo not drawn) [Example 1a, 2'-(1"-PyrrolidinyL) rifamycin P]	16 (≈ 19.8 µM)	0.008 (≈ 0.0099 µM)	0.004 (≈ 0.00495 µM)	0.016 (≈ 0.0198 µM)	16 (≈ 19.8 µM)	2 (≈ 2.48 µM)	32 (≈ 39.6 µM)	0.016 (≈ 0.0198 µM)	8 (≈ 9.9 µM)	0.032 (≈ 0.0396 µM)	2 (≈ 2.48 µM)	> 128			
COC1C=COC2(C)Oc3c(C)c(O)c4c(O)c(c5sc(N6CCOCC6)nc5c4c3C2=O)NC(=O)C(C)=CC=CC(C)C(O)C(C)C(O)C(C)C(OC(C)=O)C1C (stereo not drawn) [Example 1b, 2'-(4"-morpholinyl) rifamycin P]	8 (≈ 9.71 µM)	0.032 (≈ 0.0388 µM)	0.002 (≈ 0.00243 µM)	0.008 (≈ 0.00971 µM)	16 (≈ 19.4 µM)	1 (≈ 1.21 µM)	32 (≈ 38.8 µM)	0.001 (≈ 0.00121 µM)	16 (≈ 19.4 µM)	0.016 (≈ 0.0194 µM)	2 (≈ 2.43 µM)	64 (≈ 77.7 µM)	0.21	0.21	
COC1C=COC2(C)Oc3c(C)c(O)c4c(O)c(c5sc(N6CCN(c7ccccc7)CC6)nc5c4c3C2=O)NC(=O)C(C)=CC=CC(C)C(O)C(C)C(O)C(C)C(OC(C)=O)C1C (stereo not drawn) [Example 1c, 2'(4"-phenyl-1"-piperazinyl) rifamycin P]	16 (≈ 17.8 µM)	0.032 (≈ 0.0356 µM)	0.008 (≈ 0.0089 µM)	0.016 (≈ 0.0178 µM)	4 (≈ 4.45 µM)	1 (≈ 1.11 µM)		0.004 (≈ 0.00445 µM)	8 (≈ 8.9 µM)	0.004 (≈ 0.00445 µM)	1 (≈ 1.11 µM)	> 128	0.63	2.5	MIC ([5]; Klebsiella pneumoniae): > 128 µg/mL
COC1C=COC2(C)Oc3c(C)c(O)c4c(O)c(c5sc(N6CCN(Cc7ccccc7)CC6)nc5c4c3C2=O)NC(=O)C(C)=CC=CC(C)C(O)C(C)C(O)C(C)C(OC(C)=O)C1C (stereo not drawn) [Example 1d, 2'(4"-phenylmethyl-1"-piperazinyl) rifamycin P]	32 (≈ 35 µM)	0.064 (≈ 0.0701 µM)	0.008 (≈ 0.00876 µM)	0.016 (≈ 0.0175 µM)	32 (≈ 35 µM)	1 (≈ 1.1 µM)	64 (≈ 70.1 µM)	0.004 (≈ 0.00438 µM)	16 (≈ 17.5 µM)	0.064 (≈ 0.0701 µM)	0.125 (≈ 0.137 µM)	> 128			
CCOC(=O)N1CCN(c2nc3c(s2)c2c(O)c4c(O)c(C)c5c(c43)C(=O)C(C)(OC=CC(OC)C(C)C(OC(C)=O)C(C)C(O)C(C)C(O)C(C)C=CC=C(C)C(=O)N2)O5)CC1 (stereo not drawn) [Example 1e, 2'(4"-ethoxycarbonyl-1"-piperazinyl) rifamycin P]	16 (≈ 17.9 µM)	0.064 (≈ 0.0715 µM)	0.064 (≈ 0.0715 µM)	0.064 (≈ 0.0715 µM)	16 (≈ 17.9 µM)	4 (≈ 4.47 µM)	32 (≈ 35.8 µM)	0.032 (≈ 0.0358 µM)	32 (≈ 35.8 µM)	0.064 (≈ 0.0715 µM)	2 (≈ 2.23 µM)	128 (≈ 143 µM)			

Reference: patent US4880789A, “2'-Substituted-4-deoxy-thiazolo(5,4-c)-rifamycin SV derivatives” (Gruppo Lepetit S.P.A., priority 1985, dated 1989)
